Measurements as given in ChEMBL document CHEMBL1125877, “Synthesis of high specific activity (+)- and (-)-6-[18F]fluoronorepinephrine via the nucleophilic aromatic substitution reaction” (1991).

Assays:
Papio hamadryas [1] = species on record: Papio hamadryas; test: Peak concentration injected dose/cc was observed at 10 min post injection in female baboons; format: functional
Papio hamadryas [2] = species on record: Papio hamadryas; test: Percent radioactivity remained at 120 min post injection was reported in female baboons; format: functional, organism-based; details: tested as the 18F-labelled form

Compound | Peak concentration (Papio hamadryas [1]) [%] | Radioactivity remained (Papio hamadryas [2]) [%]
NCC(O)c1cc(O)c(O)cc1[18F] (racemic) | 0.042 | –
NCC(O)c1cc(O)c(O)cc1F (racemic) | – | 0.032
